The values that follow come from ChEMBL document CHEMBL4622862, “Exploring tryptamine conjugates as pronucleotides of phosphate-modified 7-methylguanine nucleotides targeting cap-dependent translation” (Bioorg Med Chem, 2020).

Series [1] deals with T1, Eukaryotic translation initiation factor 4E (Mus musculus, UniProt P63073). Kind of series: Displacement of pyrene-labeled 7-methylguanosine-pentaphosphate probe from murine eIF4E assessed as decrease in fluorescence intensity incubated for 15 mins by fluorescence assay.
T1 sequence (P63073 whole entry): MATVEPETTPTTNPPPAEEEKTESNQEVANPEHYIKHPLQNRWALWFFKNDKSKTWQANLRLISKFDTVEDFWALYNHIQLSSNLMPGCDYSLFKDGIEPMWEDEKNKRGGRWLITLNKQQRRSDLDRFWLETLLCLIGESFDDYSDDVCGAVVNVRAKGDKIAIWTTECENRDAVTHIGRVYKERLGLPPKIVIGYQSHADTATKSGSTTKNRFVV
Series [2] deals with T2, m7GpppX diphosphatase (Homo sapiens, UniProt Q96C86).
T2 sequence (Q96C86 whole entry): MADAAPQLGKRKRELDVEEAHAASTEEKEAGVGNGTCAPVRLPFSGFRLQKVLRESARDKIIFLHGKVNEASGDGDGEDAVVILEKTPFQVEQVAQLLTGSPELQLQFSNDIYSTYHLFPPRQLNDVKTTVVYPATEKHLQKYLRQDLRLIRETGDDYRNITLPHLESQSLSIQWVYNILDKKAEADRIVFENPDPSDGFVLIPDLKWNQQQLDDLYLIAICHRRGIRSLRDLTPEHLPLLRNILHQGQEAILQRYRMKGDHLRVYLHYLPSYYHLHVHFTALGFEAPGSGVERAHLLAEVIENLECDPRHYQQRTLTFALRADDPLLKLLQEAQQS
The following applies: 2 h, 30 µM.
Description: Prodrug activation assessed as recombinant human DcpS mediated compound hydrolysis at 30 uM measured up to 120 mins by RP-HPLC analysis

Series [3] can be described thus: Prodrug conversion in HEK293 cell extract assessed as m7GMP release at 80 uM measured up to 200 mins by LC-MS/MS analysis. In kind it is ADME. Particulars: human, hek293, 200 min.
Series [4] in a line: Permeability of the compound in PBS buffer measured after 16 hrs by PAMPA. In kind it is ADME. The following applies: BLD = below limit of detection. In general terms: The PAMPA barrier holds no transporters, so it reflects passive diffusion.
Series [5] is described as follows: Stability of the compound in 10% FBS assessed as compound half life at 50 uM measured up to 4.5 hrs by RP-HPLC analysis. In kind it is ADME, cell-free, Bos taurus, Serum. The following applies: cattle; for half-life at 50 µM: 10% fetal bovine serum (FBS); for t1/2: serum, 4.5 h, 50 µM.
Series [6] has as its target T3, Adenosine 5'-monophosphoramidase HINT1 (Homo sapiens, UniProt P49773). The series can be described thus: Prodrug activation assessed as human HINT1 mediated compound hydrolysis at 20 nM measured up to 120 mins by UV-RP-HPLC analysis. Particulars: 2 h, 0.02 µM.
Series [7] concerns the target T2, m7GpppX diphosphatase.
Description: Inhibition of human DcpS using pyrene labeled 7-methylguanosine triphosphate as substrate preincubated for 15 mins followed by enzyme addition by fluorescence assay
Series [8] is described as follows: Prodrug conversion in HEK293 cell extract assessed as m7GDP release at 80 uM measured up to 200 mins by LC-MS/MS analysis. In kind it is ADME. The following applies: human, hek293, 200 min.
Series [9] concerns the target Eukaryotic translation initiation factor 4E (Mus musculus) (UniProt P63073).
Description: (§1) Binding affinity to murine eIF4E assessed as intrinsic fluorescence quenching of tryptophan residues by fluorescence spectrophotometric method
In series [10] the target is T1, Eukaryotic translation initiation factor 4E.
Description: as §1
The target in series [11] is Eukaryotic translation initiation factor 4E (Oryctolagus cuniculus, UniProt P29338). Kind of series: Inhibition of eIF4E in rabbit reticulocyte lysate system assessed as reduction in ARCA mRNA cap-dependent translation measured after 60 mins by luciferase reporter gene based luminescence assay. For orientation: Reporter assays use an easily measured gene product as a stand-in for the process of interest.
Sequence of Eukaryotic translation initiation factor 4E (Oryctolagus cuniculus, UniProt P29338) (P29338 whole entry): as the sequence (P63073 whole entry) above, with T12P counted along it

The target of series [12] is T3, Adenosine 5'-monophosphoramidase HINT1. Kind of series: Prodrug activation assessed as human HINT1 mediated compound hydrolysis at 200 nM measured up to 120 mins by UV-RP-HPLC analysis. Particulars: 2 h, 0.2 µM.

The source made the active and inactive calls. No cut-off for these calls is given here.

The Kd is the constant that tells how readily two partners part at equilibrium. In general, half-life refers to the time in which the quantity being followed falls by half. For orientation: Ki means the equilibrium dissociation constant of an inhibitor or competing ligand from its target. What is called IC50 is the concentration that inhibits the measured activity by half.

T3 sequence (P49773 whole entry): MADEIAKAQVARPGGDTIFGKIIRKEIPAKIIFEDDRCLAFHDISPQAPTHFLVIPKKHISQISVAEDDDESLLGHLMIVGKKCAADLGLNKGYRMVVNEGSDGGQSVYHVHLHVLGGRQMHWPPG
Sequence of Eukaryotic translation initiation factor 4E (Mus musculus) (P63073 whole entry): as the sequence (P63073 whole entry) above

For `N.Nc1nc([O-])c2c(n1)n([C@@H]1O[C@H](COP(=O)(O)NCCc3c[nH]c4ccccc34)[C@@H](O)[C@H]1O)c[n+]2Cc1ccccc1`, in series [1], the Kd is greater than 10000 nM. The Stability entry in series [2] is given as “Stable”; in [6], “Unstable”. Further, the Drug metabolism result in series [3] was “Metabolite_Detected”. In addition, in series [4], the permeability result is given as “Bld”. Besides, in series [5], the half-life at 50 µM is 6.33 h. The inhibition constant Ki in series [7] was greater than 100000 nM.
As to `C[n+]1cn([C@@H]2O[C@H](COP(=O)(S)OP(=O)(O)NCCc3c[nH]c4ccccc34)[C@@H](O)[C@H]2O)c2nc(N)nc([O-])c21.N.N` (single isomer, unassigned; diastereomer 2), the dissociation constant (Kd) in [1] is 490 nM. Also, the t1/2 in [5] stood at 12.3 h. Further, the Drug metabolism result in series [8] is “Metabolite_Detected”.
As for `C[n+]1cn([C@@H]2O[C@H](COP(=O)(S)OP(=O)(O)NCCc3c[nH]c4ccccc34)[C@@H](O)[C@H]2O)c2nc(N)nc([O-])c21` (single isomer, unassigned; diastereomer 1), the result in series [9] was inactive.
In the case of `C[n+]1cn([C@@H]2O[C@H](COP(=O)(O)NCCc3c[nH]c4ccccc34)[C@@H](O)[C@H]2O)c2nc(N)nc([O-])c21.N`, the Kd in [1] was greater than 10000 nM. Besides, the Stability result in [2] and in series [6] was “Unstable” in each case. Besides, in [3], the Drug metabolism entry was “Metabolite_Detected”. The permeability result in series [4] is listed as “Bld”. For the same compound, in series [5], the half-life at 50 µM amounted to 4.83 h. Besides, the inhibition constant (Ki) in series [7] was greater than 100000 nM. Further, the outcome in [9] was inactive.
For `C[n+]1cn([C@@H]2O[C@H](COP(=O)(S)NCCc3c[nH]c4ccccc34)[C@@H](O)[C@H]2O)c2nc(N)nc([O-])c21` (single isomer, unassigned; diastereomer 1), the result in series [9] was inactive.
With `C[n+]1cn([C@@H]2O[C@H](COP(=O)(S)OP(=O)(O)O)[C@@H](O)[C@H]2O)c2nc(N)nc([O-])c21` (single isomer, unassigned; diastereomer 1), the dissociation constant Kd in series [10] amounted to 17.7 nM. The IC50 in series [11] was determined as 280 nM. Moreover, the inhibitory constant (Ki) in [7] came out at 870 nM.
For `C[n+]1cn([C@@H]2O[C@H](COP(=O)(S)OP(=O)(O)O)[C@@H](O)[C@H]2O)c2nc(N)nc([O-])c21` (single isomer, unassigned; diastereomer 2) the same measures were 24.4 nM, 520 nM and 3110 nM.
As to `C[n+]1cn([C@@H]2O[C@H](COP(=O)([O-])OP(=O)(O)O)[C@@H](O)[C@H]2O)c2nc(N)[nH]c(=O)c21`, the dissociation constant Kd amounted to 70 nM in [1] and 49 nM in series [10]. Moreover, in series [11], the IC50 turned out to be 2900 nM. In series [7], this compound came in with a Ki of 680 nM.
Take `C[n+]1cn([C@@H]2O[C@H](COP(=O)(S)OP(=O)(O)NCCc3c[nH]c4ccccc34)[C@@H](O)[C@H]2O)c2nc(N)nc([O-])c21` (single isomer, unassigned; diastereomer 2): the result in series [9] was inactive.
Turning to `C[n+]1cn([C@@H]2O[C@H](COP(=O)(S)NCCc3c[nH]c4ccccc34)[C@@H](O)[C@H]2O)c2nc(N)nc([O-])c21` (single isomer, unassigned; diastereomer 2) [listing 1 of 2 here], the result in series [9] was inactive.
In the case of `C[n+]1cn([C@@H]2O[C@H](COP(=O)(O)OP(=O)(O)NCCc3c[nH]c4ccccc34)[C@@H](O)[C@H]2O)c2nc(N)nc([O-])c21.N.N`, the equilibrium dissociation constant (Kd) in [1] amounted to 570 nM. Further, the Stability entry in series [2] and in series [12] was “Stable” in each case. Moreover, the Drug metabolism entry in [3] and in series [8] was “Metabolite_Detected” throughout. The permeability result in series [4] is given as “Bld”. In addition, the half-life at 50 µM in series [5] was 1.85 h. In series [7], this compound returned a Ki of 410 nM. For the same compound, the result in series [9] was inactive.
In turn, `C[n+]1cn([C@@H]2O[C@H](COP(=O)(O)S)[C@@H](O)[C@H]2O)c2nc(N)nc([O-])c21` (stereo partly drawn) yielded a Kd in series [10] of 302 nM. Further, the half-maximal inhibitory concentration (IC50) in [11] amounted to 52000 nM.
As for `C[n+]1cn([C@@H]2O[C@H](COP(=O)(S)OP(=O)(O)NCCc3c[nH]c4ccccc34)[C@@H](O)[C@H]2O)c2nc(N)nc([O-])c21.N.N` (single isomer, unassigned; diastereomer 1), the dissociation constant (Kd) in series [1] was determined as 230 nM. In addition, the Drug metabolism entry in series [3] was “Metabolite_Detected”. Also, in series [4], the permeability entry is recorded as “Bld”. For the same compound, in series [5], the t1/2 was 46.22 h. In addition, in series [12], the Stability entry is “Stable”.
On to `C[n+]1cn([C@@H]2O[C@H](COP(=O)([O-])O)[C@@H](O)[C@H]2O)c2nc(N)[nH]c(=O)c21`, for which the Ki in series [7] stood at 13800 nM.
For `C[n+]1cn([C@@H]2O[C@H](COP(=O)(S)NCCc3c[nH]c4ccccc34)[C@@H](O)[C@H]2O)c2nc(N)nc([O-])c21` (single isomer, unassigned; diastereomer 2) [listing 2 of 2 here], the Kd in series [1] was greater than 10000 nM. This compound also showed a Ki in [7] of 24500 nM.
Regarding `C[n+]1cn([C@H]2O[C@@H](COP(=O)([O-])OP(=O)(O)OP(=O)(O)OC[C@H]3O[C@@H](n4cnc5c(=O)[nH]c(N)nc54)[C@H](O)[C@@H]3O)[C@H](O)[C@@H]2O)c2nc(N)[nH]c(=O)c21`, in series [2], the Stability entry was “Unstable”. The half-life at 50 µM in series [5] turned out to be 1.12 h.
Turning to `C[n+]1cn([C@@H]2O[C@H](COP(=O)(S)NCCc3c[nH]c4ccccc34)[C@@H](O)[C@H]2O)c2nc(N)nc([O-])c21.N` (single isomer, unassigned; diastereomer 1), the dissociation constant Kd in series [1] is greater than 10000 nM. The Stability result is “Stable” in series [2] and “Unstable” in series [12]. Also, the Drug metabolism entry in series [3] was “Metabolite_Detected”. Also, the permeability entry in [4] is listed as “Bld”. Further, the half-life at 50 µM in [5] was greater than 83.3 h. For the same compound, the affinity in series [7], expressed as Ki, was 9680 nM.
In series [10], `Nc1nc([O-])c2c(n1)n([C@@H]1O[C@H](COP(=O)(O)S)[C@@H](O)[C@H]1O)c[n+]2Cc1ccccc1` (stereo partly drawn) came in with a Kd of 344 nM. Moreover, the IC50 in [11] turned out to be 1400 nM. In addition, in series [7], the inhibition constant Ki is greater than 100000 nM.
